Measured values reported in patent US20150224157A1, “PROCESS FOR THE PREPARATION OF HERBAL EXTRACT OF CASSIA TORA LEAVES FOR TREATING ANXIETY DISORDERS” (priority 2009, published 2015).
pIC50: −log10 of the molar value.

Assays:
[1] = test system: aflatoxin B-1-8,9-epoxide formation; details: cited from earlier work
[2] = cited from earlier work
[3] = dose of 0.2 mg/mL; cited from earlier work
[4] = test system: Swiss Albino male mice; test: Elevated plus maze test in mice; format: in vivo; details: Diazepam 1.5 mg/kg p.o.
Protocol: 1. Animals: Swiss Albino male mice 20-25 gm body weights were procured from Laboratory Animal Services Division of Central Drug Research Institute, Lucknow. All animals were kept in polyacrylic cage in environmentally controlled rooms (temperature 24-27° C. and humidity 60-65% with 12:12 light:dark cycle). Food was provided in the form of dry pellets and water ad libitum. Each animal was used only once in the behavioral tests and were habituated with the experimental room one day prior to the experiment All experiments involving animals complies with the ethical standards of animal handling and approved by Institutional Animal Ethics Committee.
Treatment of animals: Diazepam was diluted in distilled water, administered by […]. The extract was dissolved in 0.5% gum acacia suspension and administered by oral route.
Elevated plus maze test in mice: This test was used to evaluate the anti-anxiety activity. The test is based on the principal of conflict between exploration and fear of open/or closed arms. Apparatus consists of a raised stainless steel maze of four arms arranged in ‘+’ sign. Two of opposite arms are enclosed by raised walls whereas other arms are kept open. All the four arms consist of infrared beams at regular distance. The movement of animal across the arms is calculated by interruption of beams, which was analyzed by Maze Tracking Software (M/s. Columbus Instruments, USA). The trial was started by placing an animal on the central platform of the maze facing an open arm. Animals were given a period of 2 min to acclimatize with its surroundings. The time spent in each of the two types of arm was recorded during the next 5 min test period. The percentage open arm time were used as index of anxiety. The apparatus was cleaned thoroughly between trials with damp and dry towels.
Diazepam (1.5 mg/kg) and the Cassia tora leaves extract (100 mg/kg) was orally administered one hour prior to the experiment.

For `O=C1c2ccccc2C(=O)c2c(O)ccc(O)c21` [quinizarin], the pIC50 [1] is given as 5.39.
For `O=C1c2ccc(O)cc2C(=O)c2ccc(O)cc21` [anthraflavine], the pIC50 [1] is listed as 4.57.
For `O=c1c(O)c(-c2ccc(O)c(O)c2)oc2cc(O)cc(O)c12` [quercetin], the “IC50 against hydroxyl radicals” value [2] is listed as 8.15 mu g/mL.
For `Cc1c(C)c2c(c(C)c1O)CC[C@@](C)(CCC[C@H](C)CCC[C@H](C)CCCC(C)C)O2` [alpha-tocopherol], the “inhibition of peroxidation of linoleic acid” value [3] is given as 82%.
For `CN1C(=O)CN=C(c2ccccc2)c2cc(Cl)ccc21` [Diazepam], the “percentage of time spent in open arms in comparison to saline treated control mice” value ([4]; extract 100 mg/kg p.o., P<0.01) was “significant increase”, the “% time spent in open arms” value ([4]; mice, extracts 100 mg/kg p.o.) was 23.38% and the “Time spent in open arms (secs) out of 300 secs” value ([4]; mice, extracts 100 mg/kg p.o., one hour prior, Mean ± SEM) was 70.16 ± 4.09 s.
In the case of `CC1=CCC(O)(C(C)C)CC1` (stereo not drawn) [4-terpineol], the “IC50 against hydroxyl radicals” value [2] is listed as 87.5 mu g/mL.
In the case of `O=C1c2cccc(O)c2C(=O)c2cccc(O)c21` [anthrarufm, anthrarufin], the pIC50 [1] is listed as 4.94.
